#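 Assay format: 96-well plates, 48-hour exposure. Here, GI50 denotes the concentration required for 50% inhibition of growth. The concentration for full growth arrest is given as TGI.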
# Legend:
# Experiment in all cases: inhibition of tumour cell growth, NCI panel, 48 h
# [1] = test system: SF-539 CNS
# [2] = test system: SW-620 colon
# [3] = test system: UACC-257 melanoma
# [4] = test system: T-47D breast
# [5] = test system: SNB-19 CNS
# [6] = test system: A498 renal
# [7] = test system: OVCAR-3 ovarian
# [8] = test system: NCI-H460 lung
# [9] = test system: MDA-MB-435
# [10] = test system: CAKI-1 renal
# [11] = test system: IGROV1 ovarian
# [12] = test system: LOX IMVI melanoma
# [13] = test system: RXF 393 renal
# [14] = test system: KM12 colon
# [15] = test system: MCF7 breast
# [16] = test system: UO-31 renal
# [17] = test system: SK-MEL-5 melanoma
# [18] = test system: CCRF-CEM leukemia
# [19] = test system: HOP-92 NSCLC
# [20] = test system: HOP-62 NSCLC
# [21] = test system: SF-268 CNS
# [22] = test system: MALME-3M melanoma
# [23] = test system: MOLT-4 leukemia
# [24] = test system: COLO 205 colon
# [25] = test system: ACHN renal
# [26] = test system: SF-295 CNS
# [27] = test system: BT-549 breast
# [28] = test system: NCI-H226 lung
# [29] = test system: SN12C renal
# [30] = test system: K-562 leukemia
# [31] = test system: SNB-75 CNS
# [32] = test system: RPMI-8226 leukemia
# [33] = test system: A549 NSCLC
# [34] = test system: TK-10 renal
# [35] = test system: MDA-MB-468 breast
# [36] = test system: NCI-H23 lung
# [37] = test system: OVCAR-5 ovarian
# [38] = test system: NCI-H522 lung
# [39] = test system: HT29 colon
# [40] = test system: OVCAR-4 ovarian
# [41] = test system: HCT-116 colon
# [42] = test system: M14 melanoma
# [43] = test system: SR leukemia
# [44] = test system: U251 CNS
# [45] = test system: UACC-62 melanoma
# [46] = test system: SK-MEL-28 melanoma
# [47] = test system: EKVX NSCLC
# [48] = test system: HL-60(TB) leukemia
# [49] = test system: PC-3 prostate
# [50] = test system: DU-145 prostate
# [51] = test system: HS 578T breast
# [52] = test system: HCT-15 colon
# [53] = test system: HCC-2998 colon
# [54] = test system: 786-0 renal
# [55] = test system: OVCAR-8 ovarian
# [56] = test system: SK-OV-3 ovarian
# [57] = test system: MDA-MB-231 breast
# [58] = test system: NCI/ADR-RES ovarian
# [59] = test system: SK-MEL-2 melanoma
compound,measurement,setting,value
CC(C)Sc1nc(NCCc2c[nH]c3ccccc23)c(C#N)c(-c2ccc(F)cc2)n1,GI50,[1],10.3 µM
same,TGI,[1],23.6 µM
same,GI50,[2],7.84 µM
same,TGI,[2],21.1 µM
same,GI50,[3],15.4 µM
same,TGI,[3],32.1 µM
same,GI50,[4],4.82 µM
same,TGI,[4],17.3 µM
same,GI50,[5],14.9 µM
same,TGI,[5],31 µM
same,GI50,[6],16.4 µM
same,TGI,[6],32.2 µM
same,GI50,[7],13.3 µM
same,TGI,[7],27.7 µM
same,GI50,[8],4.25 µM
same,TGI,[8],15.1 µM
same,GI50,[9],13.4 µM
same,TGI,[9],26.8 µM
same,GI50,[10],10.1 µM
same,TGI,[10],22.2 µM
same,GI50,[11],12.3 µM
same,TGI,[11],26.3 µM
same,GI50,[12],3.65 µM
same,TGI,[12],12.8 µM
same,GI50,[13],4.32 µM
same,TGI,[13],16.5 µM
same,GI50,[14],4.92 µM
same,TGI,[14],17.9 µM
same,GI50,[15],5.42 µM
same,TGI,[15],18.8 µM
same,GI50,[16],11.6 µM
same,TGI,[16],24.1 µM
same,GI50,[17],6.05 µM
same,TGI,[17],18.6 µM
same,GI50,[18],6.34 µM
same,TGI,[18],65.6 µM
same,GI50,[19],13.1 µM
same,TGI,[19],30.1 µM
same,GI50,[20],1.97 µM
same,TGI,[20],4.12 µM
same,GI50,[21],12.8 µM
same,TGI,[21],42.2 µM
same,GI50,[22],14.1 µM
same,TGI,[22],27.2 µM
same,GI50,[23],6.25 µM
same,TGI,[23],39.8 µM
same,GI50,[24],7.98 µM
same,TGI,[24],20.7 µM
same,GI50,[25],11.1 µM
same,TGI,[25],23.1 µM
same,GI50,[26],12 µM
same,TGI,[26],25.6 µM
same,GI50,[27],11.7 µM
same,TGI,[27],25 µM
same,GI50,[28],9.18 µM
same,TGI,[28],21.9 µM
same,GI50,[29],12.5 µM
same,TGI,[29],25.1 µM
same,GI50,[30],4.87 µM
same,TGI,[30],> 100 µM
same,GI50,[31],13.6 µM
same,TGI,[31],47.2 µM
same,GI50,[32],6.7 µM
same,TGI,[32],49.9 µM
same,GI50,[33],12.7 µM
same,TGI,[33],26.4 µM
same,GI50,[34],17.4 µM
same,TGI,[34],32.4 µM
same,GI50,[35],3.21 µM
same,TGI,[35],12 µM
same,GI50,[36],14.3 µM
same,TGI,[36],28.3 µM
same,GI50,[37],12.6 µM
same,TGI,[37],25.1 µM
same,GI50,[38],12.5 µM
same,TGI,[38],26 µM
same,GI50,[39],4.61 µM
same,TGI,[39],16 µM
same,GI50,[40],11.4 µM
same,TGI,[40],28.8 µM
same,GI50,[41],3.75 µM
same,TGI,[41],14.1 µM
same,GI50,[42],9.86 µM
same,TGI,[42],23.9 µM
same,GI50,[43],2.92 µM
same,TGI,[43],28.7 µM
same,GI50,[44],7.65 µM
same,TGI,[44],20.2 µM
same,GI50,[45],12.9 µM
same,TGI,[45],26.6 µM
same,GI50,[46],12.7 µM
same,TGI,[46],27.1 µM
same,GI50,[47],11.4 µM
same,TGI,[47],24.5 µM
same,GI50,[48],11.4 µM
same,TGI,[48],54.5 µM
same,GI50,[49],5.38 µM
same,TGI,[49],40.7 µM
same,GI50,[50],12 µM
same,TGI,[50],27 µM
same,GI50,[51],10.2 µM
same,TGI,[51],43.4 µM
same,GI50,[52],3.74 µM
same,TGI,[52],14.7 µM
same,GI50,[53],7.67 µM
same,TGI,[53],20.2 µM
same,GI50,[54],10.6 µM
same,TGI,[54],22.7 µM
same,GI50,[55],11.6 µM
same,TGI,[55],26.1 µM
same,GI50,[56],17.2 µM
same,TGI,[56],49.3 µM
same,GI50,[57],9.08 µM
same,TGI,[57],22.1 µM
CCCSc1nc(Nc2ccc(S(N)(=O)=O)cc2)c(C#N)c(-c2cc(OC)c(OC)c(OC)c2)n1,GI50,[1],21.4 µM
same,TGI,[1],> 100 µM
same,GI50,[2],8.34 µM
same,TGI,[2],> 100 µM
same,GI50,[3],19.2 µM
same,TGI,[3],> 100 µM
same,GI50,[4],2.76 µM
same,TGI,[4],51 µM
same,GI50,[5],11.7 µM
same,TGI,[5],> 100 µM
same,GI50,[58],4.6 µM
same,TGI,[58],> 100 µM
same,GI50,[6],> 100 µM
same,TGI,[6],> 100 µM
same,GI50,[7],6.07 µM
same,TGI,[7],> 100 µM
same,GI50,[8],5.46 µM
same,TGI,[8],> 100 µM
same,GI50,[9],4.9 µM
same,TGI,[9],> 100 µM
same,GI50,[10],5.76 µM
same,TGI,[10],> 100 µM
same,GI50,[11],25.9 µM
same,TGI,[11],> 100 µM
same,GI50,[12],3.68 µM
same,TGI,[12],> 100 µM
same,GI50,[13],2.36 µM
same,TGI,[13],9.67 µM
same,GI50,[14],4.77 µM
same,TGI,[14],> 100 µM
same,GI50,[15],4.23 µM
same,TGI,[15],> 100 µM
same,GI50,[16],2.59 µM
same,TGI,[16],> 100 µM
same,GI50,[17],2.75 µM
same,TGI,[17],12.1 µM
same,GI50,[59],11.8 µM
same,TGI,[59],> 100 µM
same,GI50,[18],3.44 µM
same,TGI,[18],> 100 µM
same,GI50,[19],3.98 µM
same,TGI,[19],63.6 µM
same,GI50,[20],11.1 µM
same,TGI,[20],> 100 µM
same,GI50,[21],9.84 µM
same,TGI,[21],> 100 µM
same,GI50,[22],5.78 µM
same,TGI,[22],75.4 µM
same,GI50,[23],2.53 µM
same,TGI,[23],8.95 µM
same,GI50,[24],8.77 µM
same,TGI,[24],> 100 µM
same,GI50,[25],4.88 µM
same,TGI,[25],> 100 µM
same,GI50,[26],3.75 µM
same,TGI,[26],28.3 µM
same,GI50,[27],3.24 µM
same,TGI,[27],32.5 µM
same,GI50,[28],6.07 µM
same,TGI,[28],> 100 µM
same,GI50,[29],5.77 µM
same,TGI,[29],> 100 µM
same,GI50,[30],3.52 µM
same,TGI,[30],> 100 µM
same,GI50,[31],2.09 µM
same,TGI,[31],> 100 µM
same,GI50,[32],3.56 µM
same,TGI,[32],> 100 µM
same,GI50,[33],4.31 µM
same,TGI,[33],> 100 µM
same,GI50,[34],16.1 µM
same,TGI,[34],> 100 µM
same,GI50,[35],6.22 µM
same,TGI,[35],65.4 µM
same,GI50,[36],15.7 µM
same,TGI,[36],> 100 µM
same,GI50,[37],32.7 µM
same,TGI,[37],> 100 µM
same,GI50,[38],10.7 µM
same,TGI,[38],> 100 µM
same,GI50,[39],6.89 µM
same,TGI,[39],> 100 µM
same,GI50,[40],6.39 µM
same,TGI,[40],> 100 µM
same,GI50,[41],4.38 µM
same,TGI,[41],> 100 µM
same,GI50,[42],6.74 µM
same,TGI,[42],> 100 µM
same,GI50,[44],5.37 µM
same,TGI,[44],> 100 µM
same,GI50,[45],6.25 µM
same,TGI,[45],> 100 µM
same,GI50,[46],7.29 µM
same,TGI,[46],> 100 µM
same,GI50,[47],5.27 µM
same,TGI,[47],> 100 µM
same,GI50,[48],2.93 µM
same,TGI,[48],33.2 µM
same,GI50,[49],2.8 µM
same,TGI,[49],> 100 µM
same,GI50,[50],7.93 µM
same,TGI,[50],> 100 µM
same,GI50,[51],7.33 µM
same,TGI,[51],> 100 µM
same,GI50,[52],3.4 µM
same,TGI,[52],> 100 µM
same,GI50,[53],7.53 µM
same,TGI,[53],> 100 µM
same,GI50,[54],10.4 µM
same,TGI,[54],> 100 µM
same,GI50,[55],5 µM
same,TGI,[55],> 100 µM
same,GI50,[56],55.1 µM
same,TGI,[56],> 100 µM
same,GI50,[57],7.23 µM
same,TGI,[57],> 100 µM

# From PubChem BioAssay (NCI)
